Measured values from ChEMBL document CHEMBL4715697, “Synthesis and biological activity of benzamide DNA minor groove binders” (2016).

Columns and labels:
Format in all cases: functional
Details in all cases: read-out: Activity
UACC-62 = experiment: Growth inhibition of human UACC-62 cells assessed as cell growth at 10 uM incubated for 48 hrs by sulforhodamine B assay relative to control
MOLT-4 = experiment: Growth inhibition of human MOLT-4 cells assessed as cell growth at 10 uM incubated for 48 hrs by sulforhodamine B assay relative to control
RXF 393 = experiment: Growth inhibition of human RXF 393 cells assessed as cell growth at 10 uM incubated for 48 hrs by sulforhodamine B assay relative to control
HCT-116 = experiment: Growth inhibition of human HCT-116 cells assessed as cell growth at 10 uM incubated for 48 hrs by sulforhodamine B assay relative to control
UACC-257 = experiment: Growth inhibition of human UACC-257 cells assessed as cell growth at 10 uM incubated for 48 hrs by sulforhodamine B assay relative to control
SR = experiment: Growth inhibition of human SR cells assessed as cell growth at 10 uM incubated for 48 hrs by sulforhodamine B assay relative to control
CCRF-CEM = experiment: Growth inhibition of human CCRF-CEM cells assessed as cell growth at 10 uM incubated for 48 hrs by sulforhodamine B assay relative to control
HT-29 = experiment: Growth inhibition of human HT-29 cells assessed as cell growth at 10 uM incubated for 48 hrs by sulforhodamine B assay relative to control
HCT-15 = experiment: Growth inhibition of human HCT-15 cells assessed as cell growth at 10 uM incubated for 48 hrs by sulforhodamine B assay relative to control
ACHN = experiment: Growth inhibition of human ACHN cells assessed as cell growth at 10 uM incubated for 48 hrs by sulforhodamine B assay relative to control
NCI-H23 = experiment: Growth inhibition of human NCI-H23 cells assessed as cell growth at 10 uM incubated for 48 hrs by sulforhodamine B assay relative to control
HOP-62 = experiment: Growth inhibition of human HOP-62 cells assessed as cell growth at 10 uM incubated for 48 hrs by sulforhodamine B assay relative to control
BT-549 = experiment: Growth inhibition of human BT-549 cells assessed as cell growth at 10 uM incubated for 48 hrs by sulforhodamine B assay relative to control
DU-145 = experiment: Growth inhibition of human DU-145 cells assessed as cell growth at 10 uM incubated for 48 hrs by sulforhodamine B assay relative to control
NCI-H460 = experiment: Growth inhibition of human NCI-H460 cells assessed as cell growth at 10 uM incubated for 48 hrs by sulforhodamine B assay relative to control
OVCAR-5 = experiment: Growth inhibition of human OVCAR-5 cells assessed as cell growth at 10 uM incubated for 48 hrs by sulforhodamine B assay relative to control
RPMI-8226 = experiment: Growth inhibition of human RPMI-8226 cells assessed as cell growth at 10 uM incubated for 48 hrs by sulforhodamine B assay relative to control
M14 = experiment: Growth inhibition of human M14 cells assessed as cell growth at 10 uM incubated for 48 hrs by sulforhodamine B assay relative to control
U-251 = experiment: Growth inhibition of human U-251 cells assessed as cell growth at 10 uM incubated for 48 hrs by sulforhodamine B assay relative to control
SNB-75 = experiment: Growth inhibition of human SNB-75 cells assessed as cell growth at 10 uM incubated for 48 hrs by sulforhodamine B assay relative to control
SW-620 = experiment: Growth inhibition of human SW-620 cells assessed as cell growth at 10 uM incubated for 48 hrs by sulforhodamine B assay relative to control
NCI-H522 = experiment: Growth inhibition of human NCI-H522 cells assessed as cell growth at 10 uM incubated for 48 hrs by sulforhodamine B assay relative to control
PC-3 = experiment: Growth inhibition of human PC-3 cells assessed as cell growth at 10 uM incubated for 48 hrs by sulforhodamine B assay relative to control
TK-10 = experiment: Growth inhibition of human TK-10 cells assessed as cell growth at 10 uM incubated for 48 hrs by sulforhodamine B assay relative to control
HCC 2998 = experiment: Growth inhibition of human HCC 2998 cells assessed as cell growth at 10 uM incubated for 48 hrs by sulforhodamine B assay relative to control
LOX IMVI = experiment: Growth inhibition of human LOX IMVI cells assessed as cell growth at 10 uM incubated for 48 hrs by sulforhodamine B assay relative to control
SK-OV-3 = experiment: Growth inhibition of human SK-OV-3 cells assessed as cell growth at 10 uM incubated for 48 hrs by sulforhodamine B assay relative to control
UO-31 = experiment: Growth inhibition of human UO-31 cells assessed as cell growth at 10 uM incubated for 48 hrs by sulforhodamine B assay relative to control
786-0 = experiment: Growth inhibition of human 786-0 cells assessed as cell growth at 10 uM incubated for 48 hrs by sulforhodamine B assay relative to control
MDA-MB-468 = experiment: Growth inhibition of human MDA-MB-468 cells assessed as cell growth at 10 uM incubated for 48 hrs by sulforhodamine B assay relative to control
MDA-MB-435 = experiment: Growth inhibition of human MDA-MB-435 cells assessed as cell growth at 10 uM incubated for 48 hrs by sulforhodamine B assay relative to control
K562 = experiment: Growth inhibition of human K562 cells assessed as cell growth at 10 uM incubated for 48 hrs by sulforhodamine B assay relative to control
SK-MEL-5 = experiment: Growth inhibition of human SK-MEL-5 cells assessed as cell growth at 10 uM incubated for 48 hrs by sulforhodamine B assay relative to control
SF-268 = experiment: Growth inhibition of human SF-268 cells assessed as cell growth at 10 uM incubated for 48 hrs by sulforhodamine B assay relative to control
OVCAR-3 = experiment: Growth inhibition of human OVCAR-3 cells assessed as cell growth at 10 uM incubated for 48 hrs by sulforhodamine B assay relative to control
SN12C = experiment: Growth inhibition of human SN12C cells assessed as cell growth at 10 uM incubated for 48 hrs by sulforhodamine B assay relative to control
OVCAR-8 = experiment: Growth inhibition of human OVCAR-8 cells assessed as cell growth at 10 uM incubated for 48 hrs by sulforhodamine B assay relative to control
A549 = experiment: Growth inhibition of human A549/ATCC cells assessed as cell growth at 10 uM incubated for 48 hrs by sulforhodamine B assay relative to control
CAKI-1 = experiment: Growth inhibition of human CAKI-1 cells assessed as cell growth at 10 uM incubated for 48 hrs by sulforhodamine B assay relative to control

Compound | growth at 10 µM (UACC-62) [%] | growth at 10 µM (MOLT-4) [%] | growth at 10 µM (RXF 393) [%] | growth at 10 µM (HCT-116) [%] | growth at 10 µM (UACC-257) [%] | growth at 10 µM (SR) [%] | growth at 10 µM (CCRF-CEM) [%] | growth at 10 µM (HT-29) [%] | growth at 10 µM (HCT-15) [%] | growth at 10 µM (ACHN) [%] | growth at 10 µM (NCI-H23) [%] | growth at 10 µM (HOP-62) [%] | growth at 10 µM (BT-549) [%] | growth at 10 µM (DU-145) [%] | growth at 10 µM (NCI-H460) [%] | growth at 10 µM (OVCAR-5) [%] | growth at 10 µM (RPMI-8226) [%] | growth at 10 µM (M14) [%] | growth at 10 µM (U-251) [%] | growth at 10 µM (SNB-75) [%] | other results
CC(=O)Nc1ccc(C(=O)Nc2cc(CO)cc(NC(C)=O)c2)cc1 | 101 | 96 | 112 | 106 | 107 | 92.1 | 82.2 | 106 | 106 | 108 | 107 | 106 | 108 | 108 | 109 | 105 | 96.6 | 98.3 | 110 | 96.7 | growth at 10 µM (SW-620): 118%; growth at 10 µM (NCI-H522): 89.5%; growth at 10 µM (PC-3): 104%; growth at 10 µM (TK-10): 101%; growth at 10 µM (HCC 2998): 99.4%; growth at 10 µM (LOX IMVI): 105%; growth at 10 µM (SK-OV-3): 105%; growth at 10 µM (UO-31): 101%; growth at 10 µM (786-0): 99.4%; growth at 10 µM (MDA-MB-468): 97%; growth at 10 µM (MDA-MB-435): 108%; growth at 10 µM (K562): 99.5%; growth at 10 µM (SK-MEL-5): 98.8%; growth at 10 µM (SF-268): 108%; growth at 10 µM (OVCAR-3): 123%; growth at 10 µM (SN12C): 104%; growth at 10 µM (OVCAR-8): 109%; growth at 10 µM (A549): 108%
CC(=O)Nc1cc(CO)cc(NC(=O)c2ccc(C(=O)NCCCN(C)C)cc2)c1 | 95.9 | 95.4 | 116 | 104 | 107 | 91.7 | 90 | 100 | 106 | 108 | 104 | 110 | 98.6 | 115 | 112 | 107 | 98.2 | 98.6 | 107 | 87.8 | growth at 10 µM (SW-620): 107%; growth at 10 µM (NCI-H522): 88.4%; growth at 10 µM (PC-3): 97.9%; growth at 10 µM (TK-10): 99%; growth at 10 µM (HCC 2998): 102%; growth at 10 µM (LOX IMVI): 97.4%; growth at 10 µM (SK-OV-3): 106%; growth at 10 µM (UO-31): 98.1%; growth at 10 µM (786-0): 102%; growth at 10 µM (MDA-MB-468): 91.2%; growth at 10 µM (MDA-MB-435): 103%; growth at 10 µM (K562): 104%; growth at 10 µM (SK-MEL-5): 96.4%; growth at 10 µM (CAKI-1): 109%; growth at 10 µM (SF-268): 114%; growth at 10 µM (OVCAR-3): 129%; growth at 10 µM (SN12C): 95.6%; growth at 10 µM (OVCAR-8): 108%; growth at 10 µM (A549): 107%
CC(=O)Nc1cccc(NC(=O)c2ccc(C(=O)Nc3cc(CCl)cc(NC(C)=O)c3)cc2)c1 | 98.3 | 93.3 | 114 | 116 | 106 | 103 | 90.8 | 111 | 109 | 109 | 107 | 112 | 108 | 119 | 112 | 112 | 98.8 | 104 | 113 | 113 | growth at 10 µM (SW-620): 114%; growth at 10 µM (NCI-H522): 90.8%; growth at 10 µM (PC-3): 95.2%; growth at 10 µM (TK-10): 113%; growth at 10 µM (HCC 2998): 103%; growth at 10 µM (LOX IMVI): 110%; growth at 10 µM (SK-OV-3): 113%; growth at 10 µM (UO-31): 104%; growth at 10 µM (786-0): 112%; growth at 10 µM (MDA-MB-468): 82.2%; growth at 10 µM (MDA-MB-435): 108%; growth at 10 µM (K562): 104%; growth at 10 µM (SK-MEL-5): 102%; growth at 10 µM (CAKI-1): 115%; growth at 10 µM (SF-268): 115%; growth at 10 µM (OVCAR-3): 128%; growth at 10 µM (SN12C): 102%; growth at 10 µM (OVCAR-8): 108%; growth at 10 µM (A549): 118%
